{"source": "patent US20120208776A1", "about": "(priority 2002, published 2012)", "key": {"MDA-MB-453 cells [1]": {"tested_on": "MDA-MB-453 cells", "test": "Cell-cycle analysis by DNA flow cytometry", "assay_type": "cell-based, human", "settings": "48 hrs", "method": "(§1) Synchrony: To synchronize the cells, 3×10^5 cells were plated onto 10 cm dishes and grown for 2 days in DMEM supplemented with 10% fetal bovine serum.\n(§2) After incubation for 1-3 days, the supernatant was collected, and the cells were trypsinized, collected, and washed with phosphate buffered saline (PBS) containing 5% FBS. Cell pellets were re-suspended in 1 ml of PBS plus 5% FBS. Thereafter, 5 ml of 70% ethanol were added drop-wise, while vortexing the tube, and the mixture was stored at 4° C. Cells were centrifuged, washed with PBS plus 5% FBS, and re-suspended in 400 μl of propidium iodide (0.1 mg/ml) (Sigma Chemical Co.). 400 μl (2 mg/ml) of RNase (Sigma Chemical Co.) were added, and the cells were incubated in the dark at room temperature for 30 min."}, "MCF7 cells [2]": {"tested_on": "MCF7 cells", "test": "Cell proliferation, cell count (Coulter Counter)", "assay_type": "cell-based, human", "settings": "for IC50: MCF7 cells, 96 h"}, "MCF7 cells [3]": {"tested_on": "MCF7 cells", "test": "Cell-cycle analysis by DNA flow cytometry", "assay_type": "cell-based, human", "settings": "about 40 μg/ml", "method": "as §1, §2"}, "[4]": {"target": "NTPase/helicase of hepatitis C virus (Hepatitis C virus genotype 1a, UniProt P27958)", "sequence (P27958 1203-1364)": "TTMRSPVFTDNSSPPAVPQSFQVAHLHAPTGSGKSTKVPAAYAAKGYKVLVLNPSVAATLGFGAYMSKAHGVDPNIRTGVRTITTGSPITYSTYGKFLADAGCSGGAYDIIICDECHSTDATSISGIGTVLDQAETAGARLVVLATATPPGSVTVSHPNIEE", "settings": "competitive inhibition of ATP binding; cited from earlier work"}, "Na^+-K^+-ATPase": {"tested_on": "Na^+-K^+-ATPase", "test": "Enzymatic assay of adenosine 5′-triphosphatase", "assay_type": "biochemical", "settings": "20 μM", "method": "Enzymatic assay of adenosine 5′-triphosphatase. The enzymatic assay of ATPase (adenosine 5′-triphosphatase, EC 3.6.1.3) followed the Sigma Prod. […] [P] was determined by the Taussky-Shorr method."}, "MDA-MB-453 cells [5]": {"tested_on": "MDA-MB-453 cells", "test": "Combination of agents, MTT assay, combination index", "method": "Calculating the Combination Index. To determine the Combination Index (CI), 1) the Na^+-K^+-ATPase enzyme or 2) MDA-MB-453 cells were exposed to all combinations of 3, 4 or 5 concentrations of each of the agents tested and a solvent control. […] The results of the enzymatic assay of ATPase or MTT assay were analyzed for possible synergistic effects using the median effect principle. Variable ratios of drugs were employed and mutually exclusive equations were assumed.\nCalculating the Combination Index.\nThe simvastatin was obtained from Sigma of St. Louis, Mo. The concentrations tested in the present example were 0, 0.2, 2, 5, and 20 μg/ml actein and 0, 0.8, 4, 20 and 40 μg/ml simvastatin."}, "MDA-MB-453 cells [6]": {"tested_on": "MDA-MB-453 cells", "test": "Combination with chemotherapy agents, cell count, combination index (CI)", "assay_type": "cell-based, human"}, "MDA-MB-453 cells [7]": {"tested_on": "MDA-MB-453 cells", "test": "MTT assay, 96 hours", "assay_type": "cell-based, human", "settings": "Homo sapiens, MTT, 96 h, read-out: IC50", "quoted_text": "(§3) For the Coulter counter assay, cells were seeded at 2×10^4 cells per well in 24 well plates (0.875 cm diameter) as described previously. […] Control and treated cells were compared using the student's t-test (p<0.05). For cell cycle analysis the cells were plated (3×10^5) onto 6 cm dishes and allowed to attach for 24 hours. […] After 24 hours the cells were analyzed by DNA flow cytometry, as described previously."}, "MDA-MB-453 cells [8]": {"tested_on": "MDA-MB-453 cells", "test": "Cell proliferation, cell count (Coulter Counter)", "settings": "MDA-MB-453 (FIG. 10)", "quoted_text": "For the cell count assay, breast cancer cells were seeded, in triplicate, at 2×10^4 cells per well, in 24- or 96-well plates.\nas §3"}, "[9]": {"settings": "value in parentheses, read-out: IC50"}}, "note": "Read-outs that look alike come from different tables or passages of the source.", "data": [{"compound": "O=c1[nH]cc(F)c(=O)[nH]1", "note": "[5-FU, 5-fluorouracil, reference compound]", "values": [{"measurement": "G1 (%)", "setting": "MDA-MB-453 cells [1]; (c) 5-FU 0.02 μg/mL", "result": 28.9, "unit": "%"}, {"measurement": "G2/M (%)", "setting": "MDA-MB-453 cells [1]; (c) 5-FU 0.02 μg/mL", "result": 20.3, "unit": "%"}, {"measurement": "S (%)", "setting": "MDA-MB-453 cells [1]; (c) 5-FU 0.02 μg/mL", "result": 47.6, "unit": "%"}, {"measurement": "Sub G1 (%)", "setting": "MDA-MB-453 cells [1]; (c) 5-FU 0.02 μg/mL", "result": "3.", "unit": "%"}]}, {"compound": "25-acetyl-7,8-didehydrocimigenol 3-O-β-D-xylopyranoside", "values": [{"measurement": "solubility", "setting": "Solubility (observation)", "result": "sufficiently soluble"}]}, {"compound": "CC(=O)O[C@@H]1C[C@@]23C[C@@]24CC[C@H](O[C@@H]2OC[C@@H](O)[C@H](O)[C@H]2O)C(C)(C)[C@@H]4CC=C3[C@]2(C)C[C@@H]3O[C@@]4(O)[C@H](OC(C)(C)[C@H]4O)[C@@H](C)[C@@H]3[C@@]12C", "note": "[cimiracemoside A]", "values": [{"measurement": "IC50", "setting": "MCF7 cells [2]", "result": 41, "unit": "µg/mL"}, {"measurement": "IC50", "setting": "MCF7 cells [2]; [9]", "result": 61, "unit": "µM"}, {"measurement": "cell-cycle arrest", "setting": "MCF7 cells [3]", "result": "induced cell-cycle arrest at G1"}]}, {"compound": "cimifugoside", "values": [{"measurement": "IC50", "setting": "MCF7 cells [2]", "result": 22, "unit": "µg/mL"}, {"measurement": "IC50", "setting": "MCF7 cells [2]; [9]", "result": 36, "unit": "µM"}]}, {"compound": "COc1cc(/C=C/C(=O)O)ccc1O", "note": "[ferulic, ferulic acid]", "values": [{"measurement": "effect on the growth of MCF7 cells", "setting": "MCF7 cells [2]", "result": "active in suppressing the growth"}]}, {"compound": "CC(=O)O[C@@H]1C[C@@]23C[C@@]24CC[C@H](O[C@@H]2OC[C@@H](O)[C@H](O)[C@H]2O)C(C)(C)[C@@H]4CC[C@H]3[C@]2(C)C[C@@H]3O[C@@]4(C[C@@H](C)[C@@H]3[C@@]12C)OC[C@@]1(C)O[C@@H]41", "note": "[23-epi-26-deoxyactein]", "values": [{"measurement": "IC50", "setting": "MCF7 cells [2]", "result": 21, "unit": "µg/mL"}, {"measurement": "IC50", "setting": "MCF7 cells [2]; [9]", "result": 32, "unit": "µM"}, {"measurement": "cell-cycle arrest", "setting": "MCF7 cells [3]", "result": "induced cell-cycle arrest at G1"}]}, {"compound": "CC(=O)O[C@H]1C(=O)[C@@]2(C)[C@H]([C@H](OC(=O)c3ccccc3)[C@]3(O)C[C@H](OC(=O)[C@H](O)[C@@H](NC(=O)c4ccccc4)c4ccccc4)C(C)=C1C3(C)C)[C@]1(OC(C)=O)CO[C@@H]1C[C@@H]2O", "note": "[paclitaxel, reference compound]", "values": [{"measurement": "IC50", "setting": "[4]", "result": "~16", "unit": "µM"}, {"measurement": "percent inhibition of in vitro Na^+-K^+-ATPase activity", "setting": "Na^+-K^+-ATPase", "result": 21.7, "unit": "%"}, {"measurement": "cell survival", "setting": "MDA-MB-453 cells [5]; paclitaxel 1 nM alone", "result": 63.2, "unit": "%"}, {"measurement": "number of viable cells, average", "setting": "MDA-MB-453 cells [6]; tax 1", "result": 118624}, {"measurement": "number of viable cells, average", "setting": "MDA-MB-453 cells [6]; tax 4", "result": 37060.67}, {"measurement": "number of viable cells, average", "setting": "MDA-MB-453 cells [6]; tax .25 (nM)", "result": 198416.3}, {"measurement": "G1 (%)", "setting": "MDA-MB-453 cells [1]; (b) Taxol 1 nM", "result": 71.0, "unit": "%"}, {"measurement": "G2/M (%)", "setting": "MDA-MB-453 cells [1]; (b) Taxol 1 nM", "result": 17.0, "unit": "%"}, {"measurement": "S (%)", "setting": "MDA-MB-453 cells [1]; (b) Taxol 1 nM", "result": 10.8, "unit": "%"}, {"measurement": "Sub G1 (%)", "setting": "MDA-MB-453 cells [1]; (b) Taxol 1 nM", "result": 1.0, "unit": "%"}]}, {"compound": "COc1cccc2c1C(=O)c1c(O)c3c(c(O)c1C2=O)C[C@@](O)(C(=O)CO)C[C@@H]3O[C@H]1C[C@H](N)[C@H](O)[C@H](C)O1", "note": "[Doxorubicin, doxorubicin, reference compound]", "values": [{"measurement": "G1 (%)", "setting": "MDA-MB-453 cells [1]; (c) Doxorubicin 0.1 μg/mL", "result": 30.1, "unit": "%"}, {"measurement": "G2/M (%)", "setting": "MDA-MB-453 cells [1]; (c) Doxorubicin 0.1 μg/mL", "result": 61.7, "unit": "%"}, {"measurement": "S (%)", "setting": "MDA-MB-453 cells [1]; (c) Doxorubicin 0.1 μg/mL", "result": 5.6, "unit": "%"}, {"measurement": "Sub G1 (%)", "setting": "MDA-MB-453 cells [1]; (c) Doxorubicin 0.1 μg/mL", "result": 2.5, "unit": "%"}]}, {"compound": "CCC(C)(C)C(=O)O[C@H]1C[C@@H](C)C=C2C=C[C@H](C)[C@H](CC[C@@H]3C[C@@H](O)CC(=O)O3)[C@H]21", "note": "[simvastatin]", "values": [{"measurement": "viability at 20 µg/mL", "setting": "MDA-MB-453 cells [5]; Homo sapiens, MDA-MB-453, read-out: percent viable cells", "result": 83.1, "unit": "%"}, {"measurement": "cell survival", "setting": "MDA-MB-453 cells [5]; simvastatin 40 ug/ml alone", "result": 58.2, "unit": "%"}, {"measurement": "IC50", "setting": "MDA-MB-453 cells [7]", "result": 21.5, "unit": "µM"}]}, {"compound": "C[C@@H]1C[C@@H]2O[C@@]3(O[C@@H]2C(C)(C)O)[C@H](O)[C@@]2(C)[C@@H]4CC[C@H]5C(C)(C)[C@@H](O)CC[C@@]56C[C@@]46CC[C@]2(C)[C@@H]13", "note": "[Cimigenol, cimigenol]", "values": [{"measurement": "effect on the growth of human breast cancer cells", "setting": "MDA-MB-453 cells [8]", "result": "less active than cimigenol glycoside"}]}, {"compound": "COc1ccc(/C=C/C(=O)O)cc1O", "note": "[isoferulic, isoferulic acid]", "values": [{"measurement": "effect on the growth of MCF7 cells", "setting": "MCF7 cells [2]", "result": "active in suppressing the growth"}]}]}
